What was measured:
Details in all cases: K-2 at 1 × 10^−7 mol/L
Melatonin MT1 = Melatonin MT1 (Homo sapiens, UniProt P48039); assay: Receptor binding panel: Melatonin MT1
Na channel site 2 = assay: Receptor binding panel: Na channel site 2
α2C-Adrenergic = α2C-Adrenergic (Homo sapiens, UniProt P18825); assay: Receptor binding panel: α2C-Adrenergic
Neurokinin NK3 = Neurokinin NK3 (Homo sapiens, UniProt P29371); assay: Receptor binding panel: Neurokinin NK3
Nicotinic = assay: Receptor binding panel: Nicotinic; set-up: species or system Human
Leukotriene B4 = assay: Receptor binding panel: Leukotriene B4
Endothelin ETA = Endothelin ETA (Homo sapiens, UniProt P25101); assay: Receptor binding panel: Endothelin ETA
Opiate μ = Opiate μ (Homo sapiens, UniProt P35372); assay: Receptor binding panel: Opiate μ
Angiotensin AT1 = Angiotensin AT1 (Homo sapiens, UniProt P30556); assay: Receptor binding panel: Angiotensin AT1
Muscarinic M3 = Muscarinic M3 (Homo sapiens, UniProt P20309); assay: Receptor binding panel: Muscarinic M3
Muscarinic M2 = Muscarinic M2 (Homo sapiens, UniProt P08172); assay: Receptor binding panel: Muscarinic M2
Chain of Muscarinic M2 (P08172 whole entry): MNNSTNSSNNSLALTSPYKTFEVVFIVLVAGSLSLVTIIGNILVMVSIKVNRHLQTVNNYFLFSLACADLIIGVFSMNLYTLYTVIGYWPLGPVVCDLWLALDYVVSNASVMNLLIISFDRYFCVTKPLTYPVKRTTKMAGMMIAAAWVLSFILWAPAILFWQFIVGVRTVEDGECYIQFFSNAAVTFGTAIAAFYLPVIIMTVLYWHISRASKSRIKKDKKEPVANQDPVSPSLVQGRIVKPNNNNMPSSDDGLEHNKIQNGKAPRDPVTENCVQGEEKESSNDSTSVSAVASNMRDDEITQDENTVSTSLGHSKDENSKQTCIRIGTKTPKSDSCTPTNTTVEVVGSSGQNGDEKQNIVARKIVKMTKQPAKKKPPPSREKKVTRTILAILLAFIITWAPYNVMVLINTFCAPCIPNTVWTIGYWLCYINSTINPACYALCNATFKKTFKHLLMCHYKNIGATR

Neurokinin NK2 = Neurokinin NK2 (Homo sapiens, UniProt P21452); assay: Receptor binding panel: Neurokinin NK2
Chain of Neurokinin NK2 (P21452 whole entry): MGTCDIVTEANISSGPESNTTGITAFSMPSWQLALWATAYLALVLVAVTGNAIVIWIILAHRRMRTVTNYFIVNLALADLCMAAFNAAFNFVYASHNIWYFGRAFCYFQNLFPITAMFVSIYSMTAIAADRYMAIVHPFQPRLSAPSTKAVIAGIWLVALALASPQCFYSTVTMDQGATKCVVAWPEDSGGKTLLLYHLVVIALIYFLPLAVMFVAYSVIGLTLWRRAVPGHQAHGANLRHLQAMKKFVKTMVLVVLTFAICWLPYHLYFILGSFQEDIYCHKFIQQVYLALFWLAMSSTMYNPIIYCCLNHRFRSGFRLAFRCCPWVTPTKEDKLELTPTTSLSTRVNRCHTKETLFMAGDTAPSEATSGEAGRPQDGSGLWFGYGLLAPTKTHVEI

α2B-Adrenergic = α2B-Adrenergic (Homo sapiens, UniProt P18089); assay: Receptor binding panel: α2B-Adrenergic
Muscarinic M1 = Muscarinic M1 (Homo sapiens, UniProt P11229); assay: Receptor binding panel: Muscarinic M1
GABA A (BZ central) = assay: Receptor binding panel: GABA A (BZ central)
[1] = target: Norepinephrine transporter (Homo sapiens, UniProt P23975); assay: Receptor binding panel: Norepinephrine transporter
Chain of Norepinephrine transporter (P23975 whole entry): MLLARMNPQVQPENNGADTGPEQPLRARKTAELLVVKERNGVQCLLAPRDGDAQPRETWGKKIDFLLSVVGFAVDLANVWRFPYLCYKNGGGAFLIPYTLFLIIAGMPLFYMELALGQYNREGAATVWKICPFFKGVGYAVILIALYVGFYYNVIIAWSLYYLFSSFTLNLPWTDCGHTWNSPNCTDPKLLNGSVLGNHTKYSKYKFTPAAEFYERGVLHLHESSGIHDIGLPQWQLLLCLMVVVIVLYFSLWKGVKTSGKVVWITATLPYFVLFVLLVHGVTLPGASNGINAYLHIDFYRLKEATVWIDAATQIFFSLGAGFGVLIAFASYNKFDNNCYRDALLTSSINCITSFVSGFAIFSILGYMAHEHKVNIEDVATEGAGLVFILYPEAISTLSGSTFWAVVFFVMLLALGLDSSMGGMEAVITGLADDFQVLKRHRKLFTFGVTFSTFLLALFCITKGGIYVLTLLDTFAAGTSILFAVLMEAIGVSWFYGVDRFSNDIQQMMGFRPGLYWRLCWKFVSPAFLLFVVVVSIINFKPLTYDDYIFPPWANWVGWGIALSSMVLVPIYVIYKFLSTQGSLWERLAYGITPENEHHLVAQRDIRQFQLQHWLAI

[2] = system: Glycine (Strychnine sensitive); assay: Receptor binding panel: Glycine (Strychnine sensitive)
Serotonin 5HT1A = Serotonin 5HT1A (Homo sapiens, UniProt P08908); assay: Receptor binding panel: Serotonin 5HT1A
α1A-Adrenergic = α1A-Adrenergic (Homo sapiens, UniProt P35348); assay: Receptor binding panel: α1A-Adrenergic
Neurokinin NK1 = Neurokinin NK1 (Homo sapiens, UniProt P25103); assay: Receptor binding panel: Neurokinin NK1
Chain of Neurokinin NK1 (P25103 whole entry): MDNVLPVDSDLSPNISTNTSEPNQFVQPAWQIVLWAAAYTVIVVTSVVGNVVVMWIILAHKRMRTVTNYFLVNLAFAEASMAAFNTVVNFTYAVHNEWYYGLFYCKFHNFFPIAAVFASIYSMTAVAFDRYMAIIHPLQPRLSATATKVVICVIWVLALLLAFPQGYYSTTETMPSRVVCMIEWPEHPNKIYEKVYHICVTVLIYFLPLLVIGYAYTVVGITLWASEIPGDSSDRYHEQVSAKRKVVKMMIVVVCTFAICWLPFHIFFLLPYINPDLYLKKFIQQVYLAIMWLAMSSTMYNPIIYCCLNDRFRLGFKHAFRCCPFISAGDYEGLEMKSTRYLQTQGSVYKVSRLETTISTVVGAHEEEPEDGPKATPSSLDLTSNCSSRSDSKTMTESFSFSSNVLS

Ca channel (Type N) = Ca channel (Type N) (Homo sapiens, UniProt Q00975); assay: Receptor binding panel: Ca channel (Type N)
Chain of Ca channel (Type N) (Q00975 whole entry): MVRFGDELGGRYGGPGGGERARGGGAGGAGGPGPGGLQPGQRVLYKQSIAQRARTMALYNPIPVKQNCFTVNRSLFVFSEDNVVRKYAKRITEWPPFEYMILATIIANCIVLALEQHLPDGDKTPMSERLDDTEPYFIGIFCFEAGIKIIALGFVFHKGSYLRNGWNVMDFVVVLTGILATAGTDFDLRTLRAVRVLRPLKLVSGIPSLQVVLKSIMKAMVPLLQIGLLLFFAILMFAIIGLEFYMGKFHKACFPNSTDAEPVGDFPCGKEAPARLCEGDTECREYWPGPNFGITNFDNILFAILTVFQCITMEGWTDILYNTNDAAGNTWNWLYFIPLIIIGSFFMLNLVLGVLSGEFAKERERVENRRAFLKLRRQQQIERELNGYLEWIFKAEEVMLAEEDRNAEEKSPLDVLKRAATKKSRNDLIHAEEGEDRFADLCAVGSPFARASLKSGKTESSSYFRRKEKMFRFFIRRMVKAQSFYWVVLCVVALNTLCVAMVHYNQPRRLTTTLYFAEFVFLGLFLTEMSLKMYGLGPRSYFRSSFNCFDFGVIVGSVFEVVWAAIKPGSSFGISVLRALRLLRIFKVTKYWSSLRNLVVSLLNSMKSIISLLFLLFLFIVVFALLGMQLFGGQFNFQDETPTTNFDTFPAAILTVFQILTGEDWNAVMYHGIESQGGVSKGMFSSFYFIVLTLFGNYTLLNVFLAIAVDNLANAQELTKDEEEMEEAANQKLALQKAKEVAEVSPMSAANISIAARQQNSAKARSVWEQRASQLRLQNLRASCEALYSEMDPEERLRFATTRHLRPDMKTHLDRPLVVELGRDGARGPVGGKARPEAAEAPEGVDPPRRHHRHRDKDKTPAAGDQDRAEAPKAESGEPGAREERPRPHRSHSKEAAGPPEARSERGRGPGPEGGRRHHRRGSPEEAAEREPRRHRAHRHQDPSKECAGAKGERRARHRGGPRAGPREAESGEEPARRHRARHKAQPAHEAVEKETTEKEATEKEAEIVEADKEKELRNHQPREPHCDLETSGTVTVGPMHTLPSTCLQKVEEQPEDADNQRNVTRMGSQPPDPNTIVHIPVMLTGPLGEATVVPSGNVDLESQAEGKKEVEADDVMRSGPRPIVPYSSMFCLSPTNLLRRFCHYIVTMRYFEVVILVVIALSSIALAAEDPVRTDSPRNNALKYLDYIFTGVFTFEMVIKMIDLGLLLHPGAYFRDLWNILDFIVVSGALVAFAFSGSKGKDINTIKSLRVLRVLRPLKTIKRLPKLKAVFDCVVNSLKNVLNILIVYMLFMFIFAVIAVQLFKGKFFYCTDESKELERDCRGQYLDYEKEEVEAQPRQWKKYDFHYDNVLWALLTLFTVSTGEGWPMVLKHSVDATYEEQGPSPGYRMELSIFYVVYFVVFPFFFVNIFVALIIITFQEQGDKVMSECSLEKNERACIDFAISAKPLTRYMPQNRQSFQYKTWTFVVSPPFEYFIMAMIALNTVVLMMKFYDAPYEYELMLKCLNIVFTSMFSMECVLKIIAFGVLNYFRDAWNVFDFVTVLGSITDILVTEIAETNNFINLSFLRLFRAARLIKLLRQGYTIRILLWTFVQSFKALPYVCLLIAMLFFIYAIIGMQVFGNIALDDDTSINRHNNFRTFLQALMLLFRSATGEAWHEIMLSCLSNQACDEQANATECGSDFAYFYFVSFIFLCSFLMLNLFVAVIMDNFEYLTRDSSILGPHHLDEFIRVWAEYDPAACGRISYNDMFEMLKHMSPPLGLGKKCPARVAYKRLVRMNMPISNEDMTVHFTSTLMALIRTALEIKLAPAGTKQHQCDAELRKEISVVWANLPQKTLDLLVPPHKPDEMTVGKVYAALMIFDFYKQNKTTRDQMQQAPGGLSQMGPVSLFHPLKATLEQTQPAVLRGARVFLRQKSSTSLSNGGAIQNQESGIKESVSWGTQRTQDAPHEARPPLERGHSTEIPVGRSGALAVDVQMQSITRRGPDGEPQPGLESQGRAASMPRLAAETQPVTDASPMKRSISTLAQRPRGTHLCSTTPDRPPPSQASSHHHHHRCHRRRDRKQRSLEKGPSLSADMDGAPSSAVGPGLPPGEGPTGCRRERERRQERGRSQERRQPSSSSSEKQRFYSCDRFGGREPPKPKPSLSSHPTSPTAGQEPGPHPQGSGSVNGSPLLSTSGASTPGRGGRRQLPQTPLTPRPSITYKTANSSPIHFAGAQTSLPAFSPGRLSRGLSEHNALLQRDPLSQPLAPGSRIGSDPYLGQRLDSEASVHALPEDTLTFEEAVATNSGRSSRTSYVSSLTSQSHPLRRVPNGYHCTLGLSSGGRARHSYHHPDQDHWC

Chain of α2C-Adrenergic (P18825 whole entry): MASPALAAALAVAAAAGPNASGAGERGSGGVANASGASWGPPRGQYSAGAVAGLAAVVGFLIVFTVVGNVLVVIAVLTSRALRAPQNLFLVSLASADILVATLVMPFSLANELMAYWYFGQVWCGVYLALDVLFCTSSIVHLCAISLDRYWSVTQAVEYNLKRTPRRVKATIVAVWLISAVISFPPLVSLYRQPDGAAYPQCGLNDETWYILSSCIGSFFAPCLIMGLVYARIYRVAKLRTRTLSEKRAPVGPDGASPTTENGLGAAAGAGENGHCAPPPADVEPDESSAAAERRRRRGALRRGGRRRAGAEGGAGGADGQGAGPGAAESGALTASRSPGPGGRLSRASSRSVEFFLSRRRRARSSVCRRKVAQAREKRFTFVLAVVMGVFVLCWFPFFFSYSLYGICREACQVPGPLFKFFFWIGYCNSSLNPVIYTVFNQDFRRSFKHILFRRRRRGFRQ
Chain of Melatonin MT1 (P48039 whole entry): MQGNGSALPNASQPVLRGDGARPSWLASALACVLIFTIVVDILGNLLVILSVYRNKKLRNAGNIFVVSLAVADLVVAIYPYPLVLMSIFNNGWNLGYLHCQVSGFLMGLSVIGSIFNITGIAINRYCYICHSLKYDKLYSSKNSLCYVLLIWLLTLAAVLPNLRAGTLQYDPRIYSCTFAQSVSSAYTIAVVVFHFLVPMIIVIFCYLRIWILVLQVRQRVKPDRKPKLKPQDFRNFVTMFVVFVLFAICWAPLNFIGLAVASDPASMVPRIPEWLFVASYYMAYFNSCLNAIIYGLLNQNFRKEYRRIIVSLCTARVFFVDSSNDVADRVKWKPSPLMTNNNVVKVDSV

Compound: CN(CCSc1cc(F)c(OCC(N)=O)c(F)c1)S(=O)(=O)c1ccccc1 [K-2, {4-[2-(benzenesulfonyl-methyl-amino)-ethylsulfanil]-2,6-difluoro-phenoxy}-acetamide]
- inhibition at 0.1 µM (Melatonin MT1): 0.11%
- Inhibition (%) (Na channel site 2): 11.15%
- inhibition at 0.1 µM (α2C-Adrenergic): 5.82%
- inhibition at 0.1 µM (Neurokinin NK3): 0%
- Inhibition (%) (Nicotinic): 7.17%
- Inhibition (%) (Leukotriene B4): 0.00%
- inhibition at 0.1 µM (Endothelin ETA): 1.81%
- inhibition at 0.1 µM (Opiate μ): 8.78%
- inhibition at 0.1 µM (Angiotensin AT1): 1.52%
- inhibition at 0.1 µM (Muscarinic M3): 5.99%
- inhibition at 0.1 µM (Muscarinic M2): 0.51%
- inhibition at 0.1 µM (Neurokinin NK2): 0.61%
- inhibition at 0.1 µM (α2B-Adrenergic): 5.83%
- inhibition at 0.1 µM (Muscarinic M1): 2.24%
- Inhibition (%) (GABA A (BZ central)): 1.54%
- inhibition at 0.1 µM [1]: 0%
- Inhibition (%) [2]: 8.46%
- inhibition at 0.1 µM (Serotonin 5HT1A): 1.98%
- inhibition at 0.1 µM (α1A-Adrenergic): 0.21%
- inhibition at 0.1 µM (Neurokinin NK1): 0%
- inhibition at 0.1 µM (Ca channel (Type N)): 0.31%

Reference: US10335503B2, “Compound that specifically binds to AMPA receptor” (Public University Corporation Yokohama City University, priority 2015, dated 2019)
